Experimental data from patent publication US10723723B2, “Substituted bicycle heterocyclic derivatives useful as ROMK channel inhibitors” (BRISTOL-MYERS SQUIBB COMPANY, priority 2016, dated 2020).

Key:
Format in all cases: cell-based
hROMK (human Kir1.1) = hROMK (human Kir1.1) (Homo sapiens (Human), UniProt P48048); assay: Thallium Flux Assay (FluxOR, CHO T-Rex hROMK stable cell line); settings: CHO T-Rex hROMK cells, 10-point concentration response curve; read-out: Human ROMK TH Flux IC50
Method: Solutions and reagents: Thallium flux assay was performed using FluxOR kit (F10017, Life Technologies). Loading buffer, assay buffer and stimulus buffer were prepared using kit components.
To prepare 10 ml of loading buffer: 10 μl of FluxOR dye (reconstituted in DMSO) was first added to 100 μl of powerload concentrate and this mix along with 100 μl of Probenicid (100×) was then added to 9.79 ml of HBSS. […] Stimulus buffer was composed of 15 mM Tl2SO4, 0.75 mM K2SO4 in FluxOR chloride free buffer (diluted to 1× using deionized water). The final concentration of Tl2SO4 and K2SO4 in the assay plate was 3 mM and 0.15 mM, respectively.
Plating and induction of cells: The CHO T-Rex hROMK (human Kir1.1) stable cell line was maintained in Ham's F12 media supplemented with 10% FBS, 1% Penicillin-Streptomycin, 500 μg/ml Zeocin and 10 μg/ml Blasticidin at 37° C. in a 5% CO2 incubator. […] The cell suspension was centrifuged at 1200 rpm for 5 min. After discarding the supernatant, the cells were resuspended in fresh growth media and cell concentration was determined using a hemocytometer. […] The assay plate was kept at 37° C. in a 5% CO2 incubator.
Assay protocol: On the day of experiment, media was removed and loading buffer was added (30 μl/well) to the assay plate. The cells were incubated in the loading buffer for 30 minutes at 37° C. The loading buffer was then replaced by assay buffer (30 μl/well) followed by addition of test compounds or controls. […] Each well was read for 90 sec at 2 sec interval and the stimulus buffer was added after 20 seconds of baseline recording. The final DMSO concentration was either 0.5 or 1% in the assay plate. Positive and negative controls were defined by addition of DMSO or 3 μM of a standard ROMK inhibitor, respectively, to the wells instead of a test compound.
A 10-point concentration response curve was used to estimate the IC50 value of test compounds.

hROMK = hROMK (Homo sapiens (Human), UniProt P48048); assay: ROMK Manual Patch Clamp Assay; settings: whole-cell manual patch clamp, hROMK current; read-out: ROMK EP IC50
Method: Cell culture conditions: Cells were maintained in conditions similar to those for Thallium flux assay. hROMK channel expression was induced by adding 0.6 μg/ml of Doxycycline 16-24 hrs prior to the experiments. On the day of experiment, the cells were dissociated using Versene, resuspended in growth media and plated onto coverslips 15 minutes prior to use.
The cells were voltage clamped at −75 mV in whole-cell configuration using an Axopatch 200b or Multiclamp 700b (Molecular Devices) amplifier controlled by pClamp Software (Molecular Devices). The current was recorded by applying a voltage step to −120 mV every 10 seconds. […] At the end of the experiment, the cells were perfused with bath solution containing 2 mM Ba^2+ to isolate the contribution of hROMK current.
Data analysis: Raw current values (5 traces each for control, different compound concentration and Ba^2+ treatment groups) were exported from Clampfit into Microsoft Excel where the current remaining after application of Ba^2+ was subtracted from raw current to obtain hROMK specific current.

hERG channels = hERG channels (Homo sapiens (Human), UniProt Q12809); assay: hERG Manual Patch Clamp Assay (HEK 293 cells stably expressing hERG channels); settings: human, HEK 293 cells stably expressing hERG channels, pH 7.4
Chain of hERG channels (Q12809 whole entry): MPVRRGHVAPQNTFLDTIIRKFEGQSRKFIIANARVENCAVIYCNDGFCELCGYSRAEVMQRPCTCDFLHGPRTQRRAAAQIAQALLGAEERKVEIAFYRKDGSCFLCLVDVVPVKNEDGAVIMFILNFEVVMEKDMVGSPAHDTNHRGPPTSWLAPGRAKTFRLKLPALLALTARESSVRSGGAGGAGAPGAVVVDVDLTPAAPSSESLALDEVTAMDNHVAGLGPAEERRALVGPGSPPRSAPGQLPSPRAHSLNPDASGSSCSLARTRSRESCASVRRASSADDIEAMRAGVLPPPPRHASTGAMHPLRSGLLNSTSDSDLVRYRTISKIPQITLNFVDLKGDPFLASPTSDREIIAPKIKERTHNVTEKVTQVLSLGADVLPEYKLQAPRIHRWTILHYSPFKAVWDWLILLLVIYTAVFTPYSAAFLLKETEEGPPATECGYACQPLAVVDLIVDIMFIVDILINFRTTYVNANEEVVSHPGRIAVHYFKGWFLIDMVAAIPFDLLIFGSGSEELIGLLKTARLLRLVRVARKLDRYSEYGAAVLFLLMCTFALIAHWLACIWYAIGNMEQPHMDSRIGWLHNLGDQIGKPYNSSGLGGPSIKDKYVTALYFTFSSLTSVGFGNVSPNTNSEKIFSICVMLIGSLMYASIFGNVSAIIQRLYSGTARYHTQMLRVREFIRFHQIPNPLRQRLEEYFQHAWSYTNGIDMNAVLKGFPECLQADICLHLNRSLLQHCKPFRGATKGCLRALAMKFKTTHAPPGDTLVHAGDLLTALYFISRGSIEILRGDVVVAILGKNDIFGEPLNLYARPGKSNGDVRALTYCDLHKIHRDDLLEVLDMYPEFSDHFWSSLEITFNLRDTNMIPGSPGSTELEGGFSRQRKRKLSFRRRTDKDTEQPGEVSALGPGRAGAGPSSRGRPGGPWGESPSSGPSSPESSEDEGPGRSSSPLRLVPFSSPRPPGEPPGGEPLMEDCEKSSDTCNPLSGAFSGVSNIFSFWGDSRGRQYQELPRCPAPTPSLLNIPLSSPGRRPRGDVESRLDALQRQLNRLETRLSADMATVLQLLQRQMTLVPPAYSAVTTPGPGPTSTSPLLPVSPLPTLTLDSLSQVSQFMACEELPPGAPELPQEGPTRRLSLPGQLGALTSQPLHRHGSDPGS
Method: hERG electrophysiology assay: The experimental compounds were assessed for hERG activity on HEK 293 cells stably expressing hERG channels using patch clamp technique. Coverslips plated with hERG expressing cells were placed in the experimental chamber and were perfused with a solution composed of (in mM): 140 NaCl, 4 KCl, 1.8 CaCl2), 1 MgCl2, 10 Glucose, 10 HEPES (pH 7.4, NaOH) at room temperature. Borosilicate patch pipettes had tip resistances of 2-4 Mohms when filled with an internal solution containing: 130 KCl, 1 MgCl2, 1 CaCl2), 10 EGTA, 10 HEPES, 5 ATP-K2 (pH 7.2, KOH). The cells were clamped at −80 mV in whole cell configuration using an Axopatch 200B (Axon instruments, Union City, Calif.) patch clamp amplifier controlled by pClamp (Axon instruments) software. Upon formation of a gigaseal, the following voltage protocol was repeatedly (0.05 Hz) applied to record tail currents: depolarization step from −80 mV to +20 mV for 2 seconds followed by a hyperpolarization step to −65 mV (3 seconds) to elicit tail currents. Compounds were applied after stabilization of tail current. First, tail currents were recorded in presence of extracellular solution alone (control) and subsequently, in extracellular solution containing increasing compound concentrations. Each compound concentration was applied for 2-5 minutes. The percentage inhibition at each concentration was calculated as reduction in peak tail current with respect to the peak tail current recorded in the presence of control solution. Data analysis was performed in a custom made template. The percent inhibitions at different concentrations were plotted to obtain a concentration response curve, which was subsequently fitted with a four parameter equation to calculate hERG IC50 value.
A lower hERG % Inhibition value indicates less inhibition of the hERG current

Chain of hROMK (P48048 whole entry): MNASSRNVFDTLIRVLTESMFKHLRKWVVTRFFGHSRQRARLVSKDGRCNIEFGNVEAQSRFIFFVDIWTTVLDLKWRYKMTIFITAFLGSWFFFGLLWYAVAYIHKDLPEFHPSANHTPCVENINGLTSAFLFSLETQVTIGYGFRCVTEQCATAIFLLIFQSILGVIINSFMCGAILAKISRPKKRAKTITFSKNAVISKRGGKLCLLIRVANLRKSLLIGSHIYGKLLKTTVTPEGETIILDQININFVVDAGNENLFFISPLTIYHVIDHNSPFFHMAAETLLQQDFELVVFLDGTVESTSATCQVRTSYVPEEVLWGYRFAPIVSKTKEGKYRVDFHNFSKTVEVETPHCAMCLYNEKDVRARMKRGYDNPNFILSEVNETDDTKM
Chain of hROMK (human Kir1.1) (P48048 whole entry): as above

SMILES | IC50 (hROMK (human Kir1.1)) [nM] | IC50 (hROMK) [nM] | inhibition at 1 µM (hERG channels) [%]
Cc1c([C@@H](O)CNC(=O)c2cnc(-c3ccc4oc(=O)n(C)c4c3)s2)ccc2c1COC2=O [Example 136, (R)-N-(2-hydroxy-2-(4-methyl-1-oxo-1,3-dihydroisobenzofuran-5-yl)ethyl)-2-(3-methyl-oxo-2,3-dihydrobenzo[d]oxazol-5-yl)thiazole-5-carboxamide] | 70 | 86 | 15
Cc1nc(-n2cc(CNC[C@H](O)c3ccc4c(c3C)COC4=O)cn2)ncc1C#N (single isomer, unassigned) [Example 50] | 45 | 49 | 8.5
Cc1c([C@@H](O)CNCc2cn(-c3ccc4oc(=O)n(C)c4c3)nn2)ccc2c1COC2=O [Example 139, (R)-5-(4-(((2-hydroxy-2-(4-methyl-1-oxo-1,3-dihydroisobenzofuran-5-yl)ethyl)amino)methyl)-1H-1,2,3-triazol-1-yl)-3-methylbenzo[d]oxazol-2(3H)-one] | 55 | 24 | 5.9
COc1cc(-n2cc(CNC(C)C(O)c3ccc4c(c3C)COC4=O)nn2)ncc1C#N (single isomer, unassigned) [Example 91-I, 6-(4-(((1-hydroxy-1-(4-methyl-1-oxo-1,3-dihydroisobenzofuran-5-yl)propan-2-yl)amino)methyl)-1H-1,2,3-triazol-1-yl)-4-methoxynicotinonitrile] | 21 | 11 | 19
